According to patent publication US20150366824A1, “INDUCTION OF ESTROGEN RECEPTOR BETA BY CHOLESTEROL BIOSYNTHESIS INHIBITORS AND METHODS OF TREATMENT OF CANCER” (THE CURATORS OF THE UNIVERSITY OF MISSOURI, priority 2012, published 2015):

Legend:
[1] = tested on: ERβ; experiment: Western blot analysis of ERβ protein in breast cancer cells; type: cell-based, human; conditions: for expression of ERβ protein: treatment for six hours, dose-dependent
Protocol: (§1) Cells used in these experiments included both the ERα+ve as well as ERα-ve cells, including triple negative types which are very aggressive growing. The ERα+ve cells used were T47-D and BT-474 cells. The ERα-ve cells used were MDA-MB-231, BT-20 and SkBr-3 cells. All cells were grown in media as specified in the data sheet from A TCC, provider of cell lines.
(§2) Whole cell extracts of breast cancer cells were prepared using a whole cell extract kit (Active Motif, Carlsbad, Calif.). Briefly, after treatment with Ro 48-8071, cells were washed once with PBS, harvested with 0.05% trypsin-EDT A, and centrifuged at 200 g at 4° C. for 5 min. Cell pellets were resuspended in lysis buffer and supernatant was transferred into pre-chilled microcentrifuge tubes and incubated on ice for 30 minutes. Samples were centrifuged at 14,000×g at 4° C. for 20 minutes, and supernatant was transferred to pre-chilled microcentrifuge tubes. Aliquots of samples were stored at −80° C. For western blot analysis, samples containing 50 μg of protein were separated in a NuPAGE 10% Bis-Tris Gel (Invitrogen, Carlsbad, Calif.).
(§3) Electrophoresis was performed at 120 V for 2 h using NuPAGE MES-SDS Running Buffer. Separated proteins were transferred to polyvinylidene difluoride membranes (BioRad Laboratories, Hercules, Calif.) at 35 V for 1.5 h.
(§4) Blots were blocked at room temperature (RT) for 1 hr in TBS containing 0.1% Tween 20 (TBS-T) and 5% nonfat dry milk and incubated with antibodies for ERα (dilution 1:200) for 2 h at room temperature, and ERβ (dilution 1:150) at 4° C. overnight. Blots were washed 3 times with TBS-T and incubated with secondary antibody for 1 h at RT before being washed a further 7 times with TBS-T.
(§5) Immunoreactive bands were visualized using an ECL Plus detection kit (Amersham, Pharmacia Biotech, Arlington Heights, Ill.). Membranes were stripped and re-blotted for beta-actin (Sigma), which was used as a control for protein loading. β-actin was used as a loading control to determine amount of total protein loaded in each lane.

[2] = tested on: ERα; experiment: Western blot analysis of ERα protein in breast cancer cells; type: cell-based, human; conditions: for expression of ERα protein: treatment for six hours, dose-dependent
Protocol: as §1, §2, §3, §4, §5

[3] = tested on: Bcl-2; experiment: Western blot analysis of Bcl-2 protein in T47-D breast cancer cells; type: cell-based, human; conditions: treatment for six hours
[4] = tested on: T47-D cells; experiment: SRB cell viability assay after ERβ siRNA knockdown; type: cell-based, human; conditions: 60 nM ERβ siRNA, Ro 48-8071 10 nM, 48 h
Protocol: FIG. 5. […] T47-D cells were treated with either ERβ siRNA (30 and 60 nM; siERβ, Santa Cruz), scrambled RNA (siC) or transfection reagent alone (C) for 72 h (upper panel). In the group treated with 60 nM siRNA, cells were treated with Ro 48-8071 (10 nM) or vehicle alone (C) for 48 h (lower panel) and tumor cell viability was determined using SRB assay as described.
ERβ siRNA (human) and control siRNA were obtained from Santa Cruz Biotechnology, Inc. (Santa Cruz, Calif., e.g. catalog no.s SC-35325 and SC-37007). ERβ siRNA is a pool of 3 target-specific 20-25 nt siRNA designed to knock down ERβ gene expression.
Transfection reagent, oligonucleotides and medium, Opti-MEM were from Invitrogen (Carlsbad, Calif.). The day before transfection, cells were seeded in six-well plates at a density of 8×10̂4 cells per well with 10% FBS DMEM/F12 medium.
To make solution A, ERβ siRNA was diluted in Opti-MEM, resulting in a final concentration of 30 or 60 nM in 100 μl/well and incubate for 5 min at room temperature (RT). […]
The surviving or adherent cells were fixed in situ by withdrawing the growth medium and adding 100 μL of PBS and 100 μL of 50% cold trichloroacetic acid and then incubating at 4° C. for 1 h. […] Bound stain was solubilized with 150 μL 10 mM Tris buffer, and absorbance of samples measured at 520 nm with a SpecTRA MAX 190 microplate reader (Sunnyvale, Calif.). […]

[5] = tested on: BT-474 cells; experiment: Sulforhodamine B (SRB) cell viability assay with ERβ-specific ligands; type: cell-based, human; conditions: for cell viability: Ro 48-8071 combined with ERβ agonist DPN: BT-474, 10 nM Ro 48-8071 ± 1 nM DPN, 48 h; for cell viability: Ro 48-8071 combined with ERβ antagonist PHTPP: BT-474, 10 nM Ro 48-8071 ± 10 or 100 nM PHTPP, 24 h
Protocol: FIG. 6. […] BT-474 cells were treated with 10 nM Ro 48-8071±1 nM DPN, or with DPN alone. Cell viability was determined after 48 h using the SRB assay.
FIG. 7. […] BT-474 cells treated with 10 nM Ro 48-8071 for 24 h±10 or 100 nM PH, or with PHTPP alone. Cell viability was determined after 24 h as described previously. […] The anti-proliferative effects of Ro 48-8071 in breast cancer cells is reduced when it is combined with ERβ antagonist.
The sulforhodamine B (SRB) assay was employed to evaluate the effect potent cholesterol biosynthesis inhibitor Ro 48-8071 alone or in combination with ERβ-specific ligands on viability of breast cancer cells, with slight modification of the original procedure established at NCI. Ro 48-8071, and ERβ-specific ligands (either an agonist DPN (diarylpropionitrile), or an antagonist PHTPP (4-[2-phenyl-5,7-bis(trifluoromethyl) pyrazolo[1,5-a]pyrimidin-3-yl]phenol)) (“PH”) were used in BT-474, T47-D, MDA-MB-231, and BT-20 human breast cancer cells in this study.
Accordingly, cells were seeded in 96-well plates in 100 μL culture medium and incubated overnight at 37° C. with 5% CO2. Culture medium was removed after 24 h, and the attached cells were washed with DMEM/F12 medium and treated by Ro 48-8071 alone or with ERβ-specific ligands at various concentrations for 24-48 hrs. […]
The surviving or adherent cells were fixed in situ by withdrawing the growth medium and adding 100 μL of PBS and 100 μL of 50% cold trichloroacetic acid and then incubating at 4° C. for 1 h. Attached cells (that had survived) were washed 5 times with ice-water, dried at room temperature (RT), and then stained with 50 μL […] SRB for 8 min at room temperature (RT). Unbound dye was removed by washing 5 times with cold 1% acetic acid, and the plates were dried at RT. Bound stain was solubilized with 150 μL 10 mM Tris buffer, and absorbance of samples measured at 520 nm with a SpecTRA MAX 190 microplate reader (Sunnyvale, Calif.). Six wells were used for each concentration, and each experiment was performed at least twice.

[6] = tested on: human breast cancer xenografts; experiment: Human breast cancer xenografts in nude mice; type: in vivo
Protocol: Female athymic nu/nu nude mice, 5 to 6 weeks-old (18-22 g) may be purchased from a number of suppliers, such as Harland Sprague-Dawley, Inc. Nude mice are inoculated with 17β-estradiol pellets (1.7 mg/pellet, 60 days release) 48 hours before inoculating tumor cells. BT-474 human breast cancer cells, 5×10^6 in 0.15 ml solution mixed with matrigel and DMEM/F12 medium (4/1, v/v) are injected into each flank of mouse subcutaneously and both flanks of each mouse are injected. When tumor volume reaches around 100 mm3, animal are randomly assigned to three groups and the treatment started with RO 48-8071 (5 mg/kg/day or 10 mg/kg/day) via tail-vein injection for five days, followed by same treatment every other day for five additional times Animals in control group receive the vehicle alone under identical conditions. Tumor volumes are measured by a digital caliper and calculated using the formula (L×W×H)×0.5236.

[7] = biological target: T1, OSC (Homo sapiens, UniProt P48449); conditions: cited from earlier work
T1 sequence (P48449 1-732): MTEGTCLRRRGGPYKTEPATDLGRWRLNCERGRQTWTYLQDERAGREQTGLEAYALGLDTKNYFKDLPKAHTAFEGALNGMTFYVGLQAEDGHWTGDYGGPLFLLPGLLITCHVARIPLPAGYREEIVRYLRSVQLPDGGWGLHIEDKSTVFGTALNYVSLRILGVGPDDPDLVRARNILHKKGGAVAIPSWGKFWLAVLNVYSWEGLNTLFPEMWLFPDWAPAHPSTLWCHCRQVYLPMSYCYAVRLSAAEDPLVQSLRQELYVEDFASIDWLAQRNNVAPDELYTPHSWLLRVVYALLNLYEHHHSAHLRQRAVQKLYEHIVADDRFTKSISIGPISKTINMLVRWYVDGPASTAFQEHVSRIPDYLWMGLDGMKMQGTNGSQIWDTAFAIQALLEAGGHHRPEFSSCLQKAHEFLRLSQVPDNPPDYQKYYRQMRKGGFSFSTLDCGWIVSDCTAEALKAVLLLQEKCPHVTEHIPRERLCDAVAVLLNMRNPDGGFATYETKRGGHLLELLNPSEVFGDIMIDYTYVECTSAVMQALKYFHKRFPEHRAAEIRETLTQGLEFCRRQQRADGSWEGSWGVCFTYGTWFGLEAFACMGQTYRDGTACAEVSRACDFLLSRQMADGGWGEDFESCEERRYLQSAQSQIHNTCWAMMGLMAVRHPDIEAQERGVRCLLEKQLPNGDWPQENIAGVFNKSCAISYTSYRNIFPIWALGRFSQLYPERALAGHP

[8] = low dose, 10 or 100 nM, seven days

C=CCN(C)CCCCCCOc1ccc(C(=O)c2ccc(Br)cc2)c(F)c1 [Ro 48-8071, (4-bromophenyl)[2-fluoro-4-[[6-(methyl-2-propenylamino)hexyl]oxy]phenyl]-methanone]
expression of ERβ protein ([1]; BT-474 breast cancer cells): induced
expression of ERβ ([1]; ERα-negative (triple-negative) BT-20 cells): stimulates expression of ERβ
expression of ERβ ([1]; ERα-negative (triple-negative) MDA-MB-231 cells): stimulates expression of ERβ
expression of ERβ protein ([1]; T47-D breast cancer cells): induced
expression of ERβ [1, 8]: induced
expression of ERα protein ([2]; BT-474 breast cancer cells): suppressed
expression of ERα protein ([2]; T47-D breast cancer cells): suppressed
expression of ERα [2, 8]: suppressed
expression of Bcl-2 protein [3]: decreased with increasing dose
tumor cell viability: effect of ERβ knockdown on the anti-proliferative effect [4]: blocked the anti-proliferative effect
cell viability: Ro 48-8071 combined with ERβ agonist DPN [5]: increased cell death more effectively (additively)
cell viability: Ro 48-8071 combined with ERβ antagonist PHTPP [5]: reduced
growth of human breast cancer xenografts [6]: inhibit growing of human breast cancer xenografts
toxicity in xenograft-bearing nude mice [6]: without toxicity
OSC inhibition in words [7]: potent inhibitor of OSC

Oc1ccc(-c2c(-c3ccccc3)nn3c(C(F)(F)F)cc(C(F)(F)F)nc23)cc1 [PHTPP, 4-[2-phenyl-5,7-bis(trifluoromethyl)pyrazolo[1,5-a]pyrimidin-3-yl]phenol]
cell viability: Ro 48-8071 combined with ERβ antagonist PHTPP [5]: blocks the anti-proliferative effect of Ro 48-8071

N#CC(Cc1ccc(O)cc1)c1ccc(O)cc1 (stereo not drawn) [DPN, 2,3-bis(4-hydroxyphenyl)-propionitrile]
cell viability: Ro 48-8071 combined with ERβ agonist DPN [5]: potentiates the ability of Ro 48-8071 to reduce viability

CCN(CC)CCO[C@H]1CC[C@@]2(C)C(=CC[C@@H]3[C@@H]2CC[C@]2(C)C(=O)CC[C@@H]32)C1 [U18666A, 3-beta-(2-(diethylamino)ethoxy)androst-5-en-17-one]
OSC inhibition in words [7]: potent inhibitor of OSC
